What was measured:
[1] = molecular target: T1, CYP1A2 (Homo sapiens, UniProt P05177); assay: CYP450 inhibition assay in human liver microsomes; assay type: in vitro ADME
T1 construct: To human liver microsomes (0.25 mg/mL); from tissue; host or cells: human liver microsomes
T1 sequence (P05177 1-516): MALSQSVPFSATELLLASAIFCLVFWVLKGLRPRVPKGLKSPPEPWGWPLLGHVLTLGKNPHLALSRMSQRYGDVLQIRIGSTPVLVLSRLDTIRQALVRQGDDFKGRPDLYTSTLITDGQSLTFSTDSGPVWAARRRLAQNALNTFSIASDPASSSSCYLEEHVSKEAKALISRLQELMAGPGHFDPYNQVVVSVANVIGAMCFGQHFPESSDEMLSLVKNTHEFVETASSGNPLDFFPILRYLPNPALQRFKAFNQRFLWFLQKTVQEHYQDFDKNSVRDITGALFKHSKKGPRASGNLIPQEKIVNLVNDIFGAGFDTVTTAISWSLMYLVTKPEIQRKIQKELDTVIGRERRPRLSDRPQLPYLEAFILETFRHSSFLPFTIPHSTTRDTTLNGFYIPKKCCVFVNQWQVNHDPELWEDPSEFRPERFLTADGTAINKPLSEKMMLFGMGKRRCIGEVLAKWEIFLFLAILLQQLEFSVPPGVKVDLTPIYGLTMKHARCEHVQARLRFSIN
Method: (§1) All of CYP inhibition, microsomal stability and plasma stability experiments were performed by New Drug Development Center, the Daegu-Gyeongbuk Medical Innovation Foundation (DGMIF), South Korea. To human liver microsomes (0.25 mg/mL), 0.1 M phosphate buffer (pH 7.4), a cocktail of five probe substrates (Phenacetin 50 μM, Diclofenac 10 μM, S-mephenytoin 100 μM, Dextromethorphan 5 μM, and Midazolam 2.5 μM), and tested compounds were added at concentrations of 0 μM (as a control) and 10 μM. After incubation at 37 °C for 5 min, NADPH generation system solution was also added and incubated at 37 °C for 15 min again. To terminate the reaction, acetonitrile including internal standard (Terfenadine) was added, and the solution was centrifuged for 5 min (14 000 rpm, 4 °C). The supernatant was then injected into the LC-MS/MS system to simultaneously analyze the metabolites of the probe substrates and evaluate the % CYP inhibition of the tested compound.

[2] = molecular target: T2, CYP3A4 (Homo sapiens, UniProt P08684); assay: CYP450 inhibition assay in human liver microsomes; assay type: in vitro ADME
T2 construct: To human liver microsomes (0.25 mg/mL); from tissue; host or cells: human liver microsomes
Method: as §1

[3] = molecular target: T3, CYP2D6 (Homo sapiens, UniProt P10635); assay: CYP450 inhibition assay in human liver microsomes; assay type: in vitro ADME
T3 construct: To human liver microsomes (0.25 mg/mL); from tissue; host or cells: human liver microsomes
Method: as §1

[4] = tested on: BMDMs; assay: MTT assay for cell viability; assay type: cell-based, mouse; settings: different concentrations and times (Fig. 3b)
Method: The mouse macrophage cell line RAW264.7 (ATCC TIB-71; American Type Culture Collection) and HEK293T (ATCC-11268) cells were maintained in DMEM (Invitrogen) containing 10% FBS (Invitrogen), sodium pyruvate, nonessential amino acids, penicillin G (100 IU/ml), and streptomycin (100 μg/ml). Transient transfections were performed with Lipofectamine 3000 (Invitrogen), or calcium phosphate (Clontech), according to the manufacturer’s instructions. Raw264.7 stable cell lines were generated using a standard selection protocol with 2 μg/ml of puromycin. Mouse primary bone marrow derived-macrophages (BMDMs) were isolated from C57BL/6 mice and cultured in DMEM for 3–5 days in the presence of 25 ng/ml recombinant macrophage colony stimulating factor (R&D Systems, 416-ML, Minneapolis, MN, USA), as described previously. Human adherent monocytes were prepared from PBMCs donated by healthy subjects, as described previously.
Figure 3 TIPTP robustly suppresses LPS/ATP-mediated Rubicon-p22phox interaction and ROS-mediated inflammation. (a) Structure of the TIPTP. (b) MTT assay for cell viability. BMDMs were incubated with TIPTP for the indicated times at the indicated TIPTP concentrations (upper). WCLs were used for IB with α22phox, αRubicon, or αActin (lower). […] Quantitative analysis of mean fluorescence intensities of ROS (lower). […] (f) Culture supernatants were harvested and analyzed for cytokines by ELISA. […]

T3 sequence (P10635 whole entry): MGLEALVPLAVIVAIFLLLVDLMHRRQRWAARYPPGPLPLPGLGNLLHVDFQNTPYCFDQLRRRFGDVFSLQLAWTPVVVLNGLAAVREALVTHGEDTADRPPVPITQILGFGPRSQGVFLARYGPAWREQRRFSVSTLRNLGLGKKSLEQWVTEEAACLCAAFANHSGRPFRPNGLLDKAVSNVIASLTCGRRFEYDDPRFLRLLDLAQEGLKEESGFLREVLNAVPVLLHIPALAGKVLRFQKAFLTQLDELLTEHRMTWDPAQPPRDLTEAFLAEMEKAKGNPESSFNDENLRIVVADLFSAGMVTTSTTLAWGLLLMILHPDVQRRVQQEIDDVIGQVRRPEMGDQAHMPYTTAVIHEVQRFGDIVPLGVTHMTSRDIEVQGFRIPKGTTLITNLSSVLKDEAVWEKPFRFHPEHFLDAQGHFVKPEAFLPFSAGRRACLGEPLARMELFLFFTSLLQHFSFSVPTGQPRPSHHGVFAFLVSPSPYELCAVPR
T2 sequence (P08684 whole entry): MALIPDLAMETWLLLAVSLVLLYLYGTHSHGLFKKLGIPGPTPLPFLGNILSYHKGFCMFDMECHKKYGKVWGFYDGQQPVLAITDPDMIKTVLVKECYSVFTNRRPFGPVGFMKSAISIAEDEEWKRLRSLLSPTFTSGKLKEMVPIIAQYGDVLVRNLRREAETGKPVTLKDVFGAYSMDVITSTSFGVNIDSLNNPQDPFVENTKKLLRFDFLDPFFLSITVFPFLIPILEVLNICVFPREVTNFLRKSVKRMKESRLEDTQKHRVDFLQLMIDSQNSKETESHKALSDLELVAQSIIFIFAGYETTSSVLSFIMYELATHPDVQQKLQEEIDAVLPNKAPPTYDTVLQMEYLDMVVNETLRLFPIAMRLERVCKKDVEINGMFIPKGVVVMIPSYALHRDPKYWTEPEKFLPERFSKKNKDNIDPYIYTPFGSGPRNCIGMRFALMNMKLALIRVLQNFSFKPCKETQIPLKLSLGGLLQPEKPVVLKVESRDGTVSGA

SMILES: C[C@@H](Oc1cccc(-n2cc3c(n2)CCCC3)c1)C(=O)Nc1nnc(C(F)(F)F)s1 [TIPTP, (R)-2-(3-(4,5,6,7-tetrahydro-2H-indazol-2-yl)phenoxy)-N-(5-(trifluoromethyl)-1,3,4-thiadiazol-2-yl)propanamide]
- CYP (% of control activity @ 10 μM) 1A2 [1]: 45.7%
- CYP (% of control activity @ 10 μM) 3A4 [2]: 76.6%
- CYP (% of control activity @ 10 μM) 2D6 ([3]; 10 μM): 98.2%
- effect on the CYP2D6 isozyme ([3]; in words): negligible
- cell viability of BMDMs [4]: did not induce any significant change

From article PMC7067850, “Identification of highly potent and selective inhibitor, TIPTP, of the p22phox-Rubicon axis as a therapeutic agent for rheumatoid arthritis” (Scientific Reports, 2020)
